Experimental data from patent US4271170A, “Pyridine derivatives” (Ono Pharmaceutical Co., Ltd.,, priority 1978, dated 1981).
Structures can show the parent of a compound that is named as a salt.

biological target: T1, thromboxane synthetase from rabbit platelet microsomes (Oryctolagus cuniculus, UniProt G1TAZ9); experiment: inhibition of thromboxane synthetase from rabbit platelet microsomes (conversion of prostaglandin H2 into thromboxane B2); assay type: biochemical; conditions: not given
T1 construct: thromboxane synthetase from rabbit platelet microsomes; from tissue; host or cells: rabbit platelet microsomes
T1 sequence (G1TAZ9 1-530): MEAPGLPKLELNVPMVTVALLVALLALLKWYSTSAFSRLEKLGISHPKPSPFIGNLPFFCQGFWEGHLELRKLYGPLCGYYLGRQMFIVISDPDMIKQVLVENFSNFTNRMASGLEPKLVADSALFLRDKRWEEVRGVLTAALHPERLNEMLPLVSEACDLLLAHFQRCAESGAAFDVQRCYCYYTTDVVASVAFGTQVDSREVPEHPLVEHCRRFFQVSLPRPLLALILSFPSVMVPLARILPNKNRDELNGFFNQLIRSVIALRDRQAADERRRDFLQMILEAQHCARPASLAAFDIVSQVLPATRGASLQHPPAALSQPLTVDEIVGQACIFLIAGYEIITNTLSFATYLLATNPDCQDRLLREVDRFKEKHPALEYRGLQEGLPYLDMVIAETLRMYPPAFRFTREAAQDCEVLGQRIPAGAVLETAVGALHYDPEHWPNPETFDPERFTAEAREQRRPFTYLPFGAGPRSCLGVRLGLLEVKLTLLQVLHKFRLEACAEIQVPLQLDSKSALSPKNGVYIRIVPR

Compound | IC50 [nM]
CCOC(=O)C(C)Oc1ccc(Cc2cccnc2)cc1 (centres unmarked) [2-[4-(3-Pyridylmethyl)phenoxy]propionic acid ethyl ester] | 3 to 650

same assay, conditions: rabbit platelet microsomes; one common range stated for all listed compounds; read-out: molar concentration producing a 50% inhibition of thromboxane synthetase

IC50 [nM] | Compound
3 to 650 | CC(C)(Cc1ccc(Cc2cccnc2)cc1)C(=O)O [2,2-Dimethyl-3-[4-(3-pyridylmethyl)phenyl]propionic acid hydrochloride]
3 to 650 | CC(C)(Oc1ccc(Cc2cccnc2)cc1)C(=O)O [2-Methyl-2-[4-(3-pyridylmethyl)phenoxy]propionic acid hydrochloride]
3 to 650 | CC(C)(Sc1ccc(Cc2cccnc2)cc1)C(=O)O [2-Methyl-2-[4-(3-pyridylmethyl)phenylthio]propionic acid hydrochloride]
3 to 650 | CC(Cc1ccc(C(C)c2cccnc2)cc1)C(=O)O (centres unmarked) [2-Methyl-3-[4-(1-3'-pyridylethyl)phenyl]propionic acid hydrochloride]
3 to 650 | CCOC(=O)C(C)Cc1ccc(Cc2cccnc2)cc1 (centres unmarked) [2-Methyl-3-[4-(3-pyridylmethyl)phenyl]propionic acid ethyl ester]
3 to 650 | CC(Cc1ccc(Cc2cccnc2)cc1)C(=O)O (centres unmarked) [2-Methyl-3-[4-(3-pyridylmethyl)phenyl]propionic acid hydrochloride]
3 to 650 | O=C(O)COc1ccc(Cc2cccnc2)cc1 [2-[4-(3-Pyridylmethyl)phenoxy]acetic acid hydrochloride]
3 to 650 | CC(Oc1ccc(Cc2cccnc2)cc1)C(=O)O (centres unmarked) [2-[4-(3Pyridylmethyl)phenoxy]propionic acid hydrochloride]
3 to 650 | CC(CC(=O)O)c1ccc(Cc2cccnc2)cc1 (centres unmarked) [3-[4-(3-Pyridylmethyl)phenyl]butyric acid hydrochloride]
3 to 650 | CCOC(=O)CCc1ccc(Cc2cccnc2)cc1 [3-[4-(3-Pyridylmethyl)phenyl]propionic acid ethyl ester]
3 to 650 | O=C(O)CCc1ccc(Cc2cccnc2)cc1 [3-[4-(3-Pyridylmethyl)phenyl]propionic acid hydrochloride]
3 to 650 | O=C(O)c1ccc(Cc2cccnc2)cc1 [4-(3-Pyridylmethyl)benzoic acid hydrochloride]
3 to 650 | CCOC(=O)COc1ccc(Cc2cccnc2)cc1 [4-(3-Pyridylmethyl)phenoxyacetic acid ethyl ester]
3 to 650 | O=C(O)Cc1ccc(Cc2cccnc2)cc1 [4-(3-Pyridylmethyl)phenylacetic acid hydrochloride]
3 to 650 | Oc1ccc(Cc2cccnc2)cc1 [4-(3-pyridylmethyl)phenol hydrochloride, 4-(3-Pyridylmethyl)phenol hydrochloride]
3 to 650 | O=C(O)/C(Br)=C/c1ccc(Cc2cccnc2)cc1 [(2)-2-Bromo-3-[4-(3-pyuridylemthyl)phenyl]acrylic acid hydrochloride]
3 to 650 | CC/C(=C\c1ccc(Cc2cccnc2)cc1)C(=O)O [(E)-2-Ethyl-3-[4-(3-pyridylmethyl)phenyl]acrylic acid hydrochloride]
3 to 650 | CCOC(=O)/C(C)=C/c1cccc(Cc2cccnc2)c1 [(E)-2-Methyl-3-[3-(3-pyridylmethyl)phenyl]acrylic acid ethyl ester]

IC50 [nM] | Compound
3 to 650 | C/C(=C\c1cccc(Cc2cccnc2)c1)C(=O)O [(E)-2-Methyl-3-[3-(3-pyridylmethyl)phenyl]acrylic acid hydrochloride]
3 to 650 | CCOC(=O)/C(C)=C/c1ccc(Cc2cccnc2)c(C)c1 [(E)-2-Methyl-3-[3-Methyl-4-(3-pyridylmethyl)phenyl]acrylic acid ethyl ester]
3 to 650 | C/C(=C\c1ccc(Cc2cccnc2)c(C)c1)C(=O)O [(E)-2-Methyl-3-[3-methyl-4-(3-pyridylmethyl)phenyl]acrylic acid hydrochloride]
3 to 650 | C/C(=C\c1ccc(C(C)c2cccnc2)cc1)C(=O)O (centres unmarked) [(E)-2-Methyl-3-[4-(1-3'-pyridylethyl)phenyl]acrylic acid hydrochloride]
3 to 650 | C/C(=C\c1ccc(Cc2cccnc2)cc1)C(=O)O [(E)-2-Methyl-3-[4-(3-pyridylmethyl)pehnyl]acrylic acid hydrochloride]
3 to 650 | C/C(=C\c1ccc(Cc2cccnc2)cc1)C(=O)Oc1ccccc1C [(E)-2-Methyl-3-[4-(3-pyridylmethyl)phenyl]acrylic acid 2-methylphenyl ester]
3 to 650 | C/C(=C\c1ccc(Cc2cccnc2)cc1)C(=O)Oc1cccc(C(F)(F)F)c1 [(E)-2-Methyl-3-[4-(3-pyridylmethyl)phenyl]acrylic acid 3-trifluoromethylphenyl ester]
3 to 650 | C/C(=C\c1ccc(Cc2cccnc2)cc1)C(=O)OCc1ccccc1 [(E)-2-Methyl-3-[4-(3-pyridylmethyl)phenyl]acrylic acid benzyl ester]
3 to 650 | C/C(=C\c1ccc(Cc2cccnc2)cc1)C(=O)Oc1ccccc1 [(E)-2-Methyl-3-[4-(3-pyridylmethyl)phenyl]acrylic acid phenyl ester]
3 to 650 | CCSC(=O)/C(C)=C/c1ccc(Cc2cccnc2)cc1 [(E)-2-Methyl-3-[4-(3-pyridylmethyl)phenyl]thioacrylic S-acid S-ethyl ester hydrochloride]
3 to 650 | C/C(=C\c1ccc(Cc2cnccc2C)cc1)C(=O)O [(E)-2-Methyl-3-[4-(4-methyl-3-pyridylmethyl)phenyl]acrylic acid hydrochloride]
3 to 650 | Cc1cc(/C=C/C(=O)O)ccc1Cc1cccnc1 [(E)-3-[3-Methyl-4-(3-pyridylmethyl)phenyl]acrylic acid hydrochloride]
3 to 650 | O=C(O)/C=C/c1ccc(C(O)c2cccnc2)cc1 (centres unmarked) [(E)-3-[4-(3-Pyridylhydroxymethyl)phenyl]acrylic acid hydrochloride]
3 to 650 | C/C(=C\C(=O)O)c1ccc(Cc2cccnc2)cc1 [(E)-3-[4-(3-Pyridylmethyl)phenyl]-2-butenoic acid hydrochloride]
3 to 650 | O=C(O)/C=C/c1ccc(Cc2cccnc2)cc1 [(E)-3-[4-(3-Pyridylmethyl)phenyl]acrylic acid hydrochloride]
3 to 650 | C/C(=C\c1ccc(Cc2cccnc2)s1)C(=O)O [(E)-5-(3-Pyridylmethyl)-2-(2-carboxy-1-propenyl(thiophene hydrochloride]
3 to 650 | O=C(O)/C=C/c1ccc(Cc2cccnc2)s1 [(E)-5-(3-Pyridylmethyl)-2-(2-carboxyvinyl)thiophene hydrochloride]
3 to 650 | COC(=O)/C(Br)=C/c1ccc(Cc2cccnc2)cc1 [(Z)-2-Bromo-3-[4-(3-pyridylmethyl)phenyl]acrylic acid methyl ester]

Compound | IC50 [nM]
C/C(=C\c1ccc(Cc2cccnc2)cc1)C(=O)OCc1ccc(-c2ccccc2)cc1 [(E)-2-Methyl-3-[4-(3-pyridylmethyl)phenyl]acrylic acid biphenylmethyl ester] | 3 to 650

tested on: thromboxane synthetase; experiment: not given; conditions: prior-art compounds, literature reports as judged by the applicant; cited from earlier work

Compound | inhibitory activity on thromboxane synthetase
Cn1ccnc1 [1-methylimidazole] | very weak
CCCCCC(O)C=CC1C2CC(N=N2)C1CC=CCCCC(=O)O (centres unmarked) [9,11-azo-15-hydroxyprosta-5,13-dienoic acid] | very weak
CCCCCC(O)C=CC1C2COC(C2)C1CC=CCCCC(=O)O (centres unmarked) [9,11-epoxymethano-15-hydroxyprosta-5,13-dienoic acid] | very weak
CCCCCCCCC1C2COC(C2)C1CCCCCCC(=O)O (centres unmarked) [9,11-epoxymethanoprostanoic acid] | very weak
CC(C)c1[nH]c2ccccc2c1C(=O)c1cccnc1 [Example L-8027, 2-isopropyl-3-nicotinylindole] | very weak
CCCCCC=CC[C@@H](C=CC=CCC=CCCCC(=O)O)OO [HPETE, 12L-hydroperoxy-5,8,10,14-eicosatetraenoic acid] | very weak
c1c[nH]cn1 [imidazole] | very weak
CC(Cc1ccc(O)c(O)c1)C(C)Cc1ccc(O)c(O)c1 (centres unmarked) [nordihydroguaiaretic acid] | very weak
sodium p-benzyl-4-[1-oxo-2-(4-chlorobenzyl)-3-phenylpropyl]phenylphosphonate [Example N-0164] | very weak
